Source: patent publication US8129371B2, “Thienopyrimidine and pyrazolopyrimidine compounds and their use as mTOR kinase and PI3 kinase inhibitors” (Wyeth LLC, priority 2007, dated 2012)
Like-named read-outs stand apart in the source and are kept apart here.

Legend:
[1] = target: T1, Human mTOR (FLAG-TOR) (Homo sapiens, UniProt P42345); experiment: Human mTOR kinase assay with purified enzyme, DELFIA format; assay type: biochemical
T1 construct: FLAG
How it was run: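 DELFIA readout: Eu-anti-P(T389)-S6K antibody (40 ng/mL, 1 h) on captured His6-S6K from the stopped reaction. Kinase step used purified FLAG-tagged human mTOR with test compound in HEPES (pH 7.4)/MnCl2/DTT buffer, 2 h at room temperature (linear 1–6 h), terminated by EDTA/EGTA.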

[2] = target: T2, PI3K (Homo sapiens, UniProt P42336); experiment: Fluorescence polarization assay for PI3K; assay type: biochemical; details: read-out: PI3 Kinase α IC50
T2 construct: PI3 Kinase α IC50; other: PI3 Kinase α; other: PI3 Kinase α isoform, fluorescence polarization
How it was run: (§1)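 Fluorescence-polarization competition readout: after 30–60 min of PIP2/ATP turnover in 1% DMSO, a stop mix with GST-GRP (70 nM) and red probe (10 nM) was added.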

[3] = target: T3, PI3K (Homo sapiens, UniProt P48736); experiment: Fluorescence polarization assay for PI3K; assay type: biochemical; details: read-out: PI3 Kinase γ IC50
T3 construct: PI3 Kinase γ IC50; other: PI3 Kinase γ; other: PI3 Kinase γ isoform, fluorescence polarization
How it was run: as §1

[4] = test system: prostate line LNCap; experiment: In vitro cell culture growth assay (MTS), LNCap; assay type: cell-based; details: Homo sapiens, LNCaP, 72 h, LNCap cells, three days after drug treatment
How it was run: (§2)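 Inhibitors were added one day after plating, and viable cells were measured 3 days later by MTS conversion (absorbance 490 nm).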

[5] = test system: breast line MDA468; experiment: In vitro cell culture growth assay (MTS), MDA468; assay type: cell-based; details: Homo sapiens, 72 h, MDA468 cells, three days after drug treatment
How it was run: as §2

[6] = purified human mTOR enzyme, DELFIA format
[7] = PI3 Kinase α isoform, fluorescence polarization
[8] = PI3 Kinase γ isoform, fluorescence polarization

T2 sequence (P42336 whole entry, canonical isoform): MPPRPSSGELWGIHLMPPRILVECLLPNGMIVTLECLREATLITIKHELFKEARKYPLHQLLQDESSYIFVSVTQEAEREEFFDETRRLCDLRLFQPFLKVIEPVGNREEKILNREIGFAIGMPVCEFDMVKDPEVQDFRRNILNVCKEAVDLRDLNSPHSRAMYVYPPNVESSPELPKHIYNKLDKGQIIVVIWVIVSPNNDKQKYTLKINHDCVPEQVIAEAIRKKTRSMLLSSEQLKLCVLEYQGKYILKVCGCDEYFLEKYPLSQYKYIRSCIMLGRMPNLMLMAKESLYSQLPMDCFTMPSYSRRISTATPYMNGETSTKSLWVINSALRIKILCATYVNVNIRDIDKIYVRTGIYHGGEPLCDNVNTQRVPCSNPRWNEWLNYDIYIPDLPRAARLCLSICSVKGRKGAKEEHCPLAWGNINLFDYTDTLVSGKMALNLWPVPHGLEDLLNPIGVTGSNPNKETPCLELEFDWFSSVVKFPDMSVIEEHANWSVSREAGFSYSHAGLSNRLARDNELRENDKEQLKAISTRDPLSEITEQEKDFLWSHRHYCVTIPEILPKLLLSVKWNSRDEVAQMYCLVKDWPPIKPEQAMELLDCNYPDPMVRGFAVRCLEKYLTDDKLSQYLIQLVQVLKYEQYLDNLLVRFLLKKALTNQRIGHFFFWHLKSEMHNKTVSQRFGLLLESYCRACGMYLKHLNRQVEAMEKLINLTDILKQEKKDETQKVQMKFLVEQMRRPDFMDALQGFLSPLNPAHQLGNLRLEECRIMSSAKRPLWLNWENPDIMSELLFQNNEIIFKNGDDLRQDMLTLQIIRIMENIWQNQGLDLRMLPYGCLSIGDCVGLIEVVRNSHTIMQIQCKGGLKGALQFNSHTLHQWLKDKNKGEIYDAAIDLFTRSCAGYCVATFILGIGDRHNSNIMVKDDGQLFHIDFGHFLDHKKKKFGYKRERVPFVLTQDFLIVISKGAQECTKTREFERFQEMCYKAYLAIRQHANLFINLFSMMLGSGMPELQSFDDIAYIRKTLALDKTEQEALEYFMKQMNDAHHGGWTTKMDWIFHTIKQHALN
T3 sequence (P48736 whole entry, canonical isoform): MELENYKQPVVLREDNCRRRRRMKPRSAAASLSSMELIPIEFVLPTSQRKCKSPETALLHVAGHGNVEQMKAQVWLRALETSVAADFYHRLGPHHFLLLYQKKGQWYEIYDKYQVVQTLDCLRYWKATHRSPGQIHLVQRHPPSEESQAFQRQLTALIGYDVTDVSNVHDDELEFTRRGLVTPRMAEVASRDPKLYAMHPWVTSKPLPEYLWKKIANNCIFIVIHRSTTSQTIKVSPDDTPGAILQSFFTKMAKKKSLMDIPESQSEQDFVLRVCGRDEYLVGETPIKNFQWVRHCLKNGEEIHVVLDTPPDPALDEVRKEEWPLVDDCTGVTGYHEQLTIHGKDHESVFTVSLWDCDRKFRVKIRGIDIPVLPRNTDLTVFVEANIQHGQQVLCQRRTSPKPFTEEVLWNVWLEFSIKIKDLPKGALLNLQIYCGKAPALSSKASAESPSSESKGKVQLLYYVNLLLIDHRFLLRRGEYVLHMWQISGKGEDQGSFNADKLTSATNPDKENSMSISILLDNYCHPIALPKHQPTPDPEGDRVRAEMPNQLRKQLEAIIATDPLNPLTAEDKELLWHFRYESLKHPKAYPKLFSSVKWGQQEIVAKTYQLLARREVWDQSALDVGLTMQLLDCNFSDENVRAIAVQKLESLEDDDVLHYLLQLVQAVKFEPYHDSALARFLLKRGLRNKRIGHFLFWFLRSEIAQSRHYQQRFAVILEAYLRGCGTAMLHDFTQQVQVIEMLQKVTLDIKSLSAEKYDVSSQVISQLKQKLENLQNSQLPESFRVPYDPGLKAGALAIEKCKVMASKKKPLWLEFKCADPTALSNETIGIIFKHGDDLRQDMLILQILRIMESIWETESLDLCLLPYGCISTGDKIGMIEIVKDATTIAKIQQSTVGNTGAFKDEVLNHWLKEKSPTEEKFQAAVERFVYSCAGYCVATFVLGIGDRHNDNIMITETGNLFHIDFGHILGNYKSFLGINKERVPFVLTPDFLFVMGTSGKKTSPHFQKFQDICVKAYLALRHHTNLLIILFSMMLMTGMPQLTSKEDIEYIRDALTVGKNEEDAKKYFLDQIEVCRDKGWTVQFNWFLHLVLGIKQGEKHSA

With `COC(=O)N1CCC(n2ncc3c(N4CC5CCC(C4)O5)nc(-c4ccc(NC(=O)Nc5ccncc5)cc4)nc32)CC1` [Example 14, methyl 4-[4-(8-oxa-3-azabicyclo[3.2.1]oct-3-yl)-6-{4-[(pyridin-4-ylcarbamoyl)amino]phenyl}-1H-pyrazolo[3,4-d]pyrimidin-1-yl]piperidine-1-carboxylate] the IC50 [1] was 0.16 nM, the IC50 ([2]; PI3 Kinase α) was 487 nM and the IC50 ([3]; PI3 Kinase γ) was 2050 nM. For the same compound, the IC50 [4] was 0.9 nM and the IC50 [5] was 19 nM.

`COC(=O)Nc1ccc(-c2nc(N3CC4CCC(C3)O4)c3cnn(C4CCN(C(=O)OC(C)C)CC4)c3n2)cc1` [Example 74, isopropyl 4-[6-{4-[(methoxycarbonyl)amino]phenyl}-4-(8-oxa-3-azabicyclo[3.2.1]oct-3-yl)-1H-pyrazolo[3,4-d]pyrimidin-1-yl]piperidine-1-carboxylate] was tested, and the IC50 [1] was 4.5 nM, the IC50 ([2]; PI3 Kinase α) was 4480 nM and the IC50 ([3]; PI3 Kinase γ) was 9500 nM. The IC50 [4] was 200 nM and the IC50 [5] was 6000 nM.

For `CN1CCN(c2ccc(NC(=O)Nc3ccc(-c4nc(N5CC6CCC(C5)O6)c5cnn(CCF)c5n4)cc3)cc2)CC1` [Example 246, 1-{4-[1-(2-fluoroethyl)-4-(8-oxa-3-azabicyclo[3.2.1]oct-3-yl)-1H-pyrazolo[3,4-d]pyrimidin-6-yl]phenyl}-3-[4-(4-methylpiperazin-1-yl)phenyl]urea], the IC50 [1] was 0.698 nM, the IC50 ([2]; PI3 Kinase α) was 96 nM and the IC50 ([3]; PI3 Kinase γ) was 1560 nM. For the same compound, the IC50 [4] was < 1 nM and the IC50 [5] was 7 nM.

`CCn1nc(Br)c2c(N3CC4CCC(C3)O4)nc(-c3ccc(NC(=O)NC)cc3)nc21` [Example 397, 1-{4-[3-bromo-1-ethyl-4-(8-oxa-3-azabicyclo[3.2.1]oct-3-yl)-1H-pyrazolo[3,4-d]pyrimidin-6-yl]phenyl}-3-methylurea] gave an IC50 [1, 6] of 3.1 nM, an IC50 [2, 7] of 317 nM and an IC50 [3, 8] of 5630 nM. For the same compound, the IC50 [4] was 210 nM and the IC50 [5] was 1500 nM.

For `O=C(Nc1ccc(-c2nc(N3C[C@H]4C[C@@H]3CO4)c3cnn(CC(F)(F)F)c3n2)cc1)Nc1cccnc1` [Example 344, 1-(4-{4-[(1R,4R)-2-oxa-5-azabicyclo[2.2.1]hept-5-yl]-1-(2,2,2-trifluoroethyl)-1H-pyrazolo[3,4-d]pyrimidin-6-yl}phenyl)-3-pyridin-3-ylurea], the IC50 [1, 6] was 17 nM, the IC50 [2, 7] was 1940 nM and the IC50 [3, 8] was > 10000 nM. For the same compound, the IC50 [4] was 660 nM and the IC50 [5] was 1000 nM.

`N#CCCn1ncc2c(N3CC4CCC(C3)O4)nc(-c3ccc(NC(=O)OCCO)cc3)nc21` [Example 213, 2-hydroxyethyl {4-[1-(2-cyanoethyl)-4-(8-oxa-3-azabicyclo[3.2.1]oct-3-yl)-1H-pyrazolo[3,4-d]pyrimidin-6-yl]phenyl}carbamate] was tested, and the IC50 [1] was 1.25 nM, the IC50 ([2]; PI3 Kinase α) was 4530 nM and the IC50 ([3]; PI3 Kinase γ) was > 10000 nM. The IC50 [4] was 150 nM and the IC50 [5] was 1000 nM.

`O=C(Nc1ccc(-c2nc(N3CC4CCC(C3)O4)c3cnn(C4CCC5(CC4)OCCO5)c3n2)cc1)OCCCO` [Example 122, 3-hydroxypropyl {4-[1-(1,4-dioxaspiro[4.5]dec-8-yl)-4-(8-oxa-3-azabicyclo[3.2.1]oct-3-yl)-1H-pyrazolo[3,4-d]pyrimidin-6-yl]phenyl}carbamate] was tested, and the IC50 [1] was 4 nM, the IC50 ([2]; PI3 Kinase α) was > 10000 nM and the IC50 ([3]; PI3 Kinase γ) was > 10000 nM. For the same compound, the IC50 [4] was 190 nM and the IC50 [5] was 1800 nM.

`Cn1ncc2c(N3CC4CCC(C3)O4)nc(-c3ccc(NC(=O)Nc4cccnc4)cc3)nc21` [Example 56, 1-{4-[1-methyl-4-(8-oxa-3-azabicyclo[3.2.1]oct-3-yl)-1H-pyrazolo[3,4-d]pyrimidin-6-yl]phenyl}-3-pyridin-3-ylurea] showed an IC50 [1] of 0.27 nM, an IC50 ([2]; PI3 Kinase α) of 227 nM and an IC50 ([3]; PI3 Kinase γ) of 579 nM. The IC50 [4] was 0.7 nM and the IC50 [5] was 5 nM.

Work on `CNC(=O)Nc1ccc(-c2nc(N3C4CCC3COC4)c3cnn(C4CCN(C(=O)OC)CC4)c3n2)cc1` [Example 356, methyl 4-[6-{4-[(methylcarbamoyl)amino]phenyl}-4-(3-oxa-8-azabicyclo[3.2.1]oct-8-yl)-1H-pyrazolo[3,4-d]pyrimidin-1-yl]piperidine-1-carboxylate] yielded an IC50 [1, 6] of 0.22 nM, an IC50 [2, 7] of 4270 nM and an IC50 [3, 8] of 6740 nM. It also gave an IC50 [4] of 30 nM and an IC50 [5] of 50 nM.
